Experiments:
[1] = system: B16-F10 murine melanoma; test: MTT cell-viability assay, B16-F10; type: cell-based; conditions: Mus musculus, 72 h, untreated control cells as 100% viability
Protocol: (§1) The cytotoxic effects of 12 NBD-Aa-triterpene conjugates (1–12) were tested on three different cancer cell lines as a representation of cancers from different tissues and organs (B16-F10 murine melanoma, HT-29 human colon adenocarcinoma, and HepG2 human hepatocyte carcinoma). Cell viability was determined by MTT colorimetric analysis, with increasing concentration levels of each compound (0–200 μg/mL) and incubation for 72 h. The MTT assay was based on the metabolic reduction of 3-(4,5-dimethylthiazol-2-yl)-2,5-diphenyltetrazolium bromide (MTT) to a violet-colored compound (formazan), with a maximum absorbance at 570 nm. Cell viability was proportional to the amount of formazan and was expressed as the percentage of viable treated cells relative to untreated control cells. The concentration at which the derivatives halved the number of viable cells in the three cancer lines (IC50) was determined. […] These NBD conjugates of BO or BM also had higher IC50 values than their precursors (BO or BM), even in NBD conjugates with the shortest-chain ω-amino acid linker (6AHA) (Table 2). Due to these high IC50 values, all of these NBD-conjugated compounds were discarded for further cytometric studies.
(§2) The effect of the synthesized compounds on the viability of tumor cells was assessed using the MTT assay, based on the ability of living cells to metabolically reduce 3-(4,5-dimethylthiazole)-2,5-diphenyltetrazole bromide, rendering formazan, a colored compound with a maximum absorbance of 570 nm. To study the cytotoxic effects of the compounds in the three cancer cell lines, the different lines were seeded in 96-well plates at a cell density per well of 5 × 10^3 for B16-F10, 6 × 10^3 for HT-29, and 15 × 10^3 for HepG2. After seeding, the plates were grown for 24 h and subsequently treated in triplicate with different compounds at different concentrations (0–200 μg/mL) for 72 h. After this time, the cells were stained by adding 100 mL of MTT (0.5 mg/mL) per well and incubated for 1 h. Subsequently, the cells were washed with phosphate-buffered saline (PBS), and formazan was resuspended in 100 μL of DMSO per well. Cell viability was measured by absorbance at 550 nm in an ELISA plate reader (Tecan Sunrise MR20–301, TECAN, Austria).
(§3) For this, Sigmaplot 12.5 software was used, and all quantitative data were expressed as means ± standard deviation (SD). All data shown are representative of at least two independent experiments performed in triplicate.

[2] = system: IEC-18 epithelial rat ileum cells; test: MTT cytotoxicity on nontumor cells, IEC-18; type: cell-based; conditions: for IC50: Rattus norvegicus, IEC-18, MTT assay, nontumor cells; for SI (selectivity index, IC50 nontumor cells/IC50 cancer cells), IEC-18: column beside IEC-18
Protocol: (§4) Due to their greater cytotoxic activity, NBD conjugates 1 and 2 were selected to analyze their cytotoxic effects on healthy cells, using nontumor cell lines (HPF human pulmonary fibroblasts, IEC-18 epithelial rat ileum cells, and WRL68 human embryonic hepatic cells) (Table 3). The selectivity indices (SI) of the NBD-Aa-triterpene conjugates 1 and 2 were calculated with the formula: IC50 nontumor cells/IC50 cancer cells. Additionally, cell-viability percentages in the nontumor cells were measured, which ranged in most cases between 75 and 90%.
as §2, §3

[3] = system: HT-29 human colon adenocarcinoma; test: MTT cell-viability assay, HT-29; type: cell-based; conditions: 72 h, untreated control cells as 100% viability
Protocol: as §1, §2, §3

[4] = system: HPF human pulmonary fibroblasts; test: MTT cytotoxicity on nontumor cells, HPF; type: cell-based; conditions: for IC50: Homo sapiens, Pulmonary fibroblast, MTT assay, nontumor cells; for SI (selectivity index, IC50 nontumor cells/IC50 cancer cells), HPF: column beside HPF
Protocol: as §4, §2, §3

[5] = Cell-viability percentages in nontumor cells, summary; type: cell-based; conditions: human, rat; in most cases
Protocol: as §4
as §2, with “After this time, the cells were stained by adding 100 mL of MTT (0.5 mg/mL) per well and incubated for 1 h. Subsequently, the cells were washed with phosphate-buffered saline (PBS), and formazan was resuspended in 100 μL of DMSO per well.” left out

[6] = Absorption and fluorescence spectroscopy (photophysical data); type: physicochemical; conditions: DMSO, 25 °C; for τ (half-life time of fluorescence): 485 nm pulsed LED; for Φ (fluorescence quantum yield): Coumarin 6 as standard; for (λem)max: excitation at 480 nm
[7] = system: WRL68 human embryonic hepatic cells; test: MTT cytotoxicity on nontumor cells, WRL68; type: cell-based; conditions: for IC50: Homo sapiens, WRL68, MTT assay, nontumor cells; for SI (selectivity index, IC50 nontumor cells/IC50 cancer cells), WRL68: column beside WRL68
Protocol: as §4, §2, §3

[8] = system: HepG2 human hepatocyte carcinoma; test: MTT cell-viability assay, HepG2; type: cell-based; conditions: 72 h, untreated control cells as 100% viability
Protocol: as §1, §2, §3

[9] = system: B16-F10 cells; test: Annexin V/propidium iodide flow cytometry of cell death, B16-F10; type: cell-based, mouse; conditions: B16-F10, at IC50 concentration, after 72 h
Protocol: (§5) NBD-6AHA-triterpene conjugates 1 and 2 were selected for the characterization of their cytotoxic effects on the three cancer cell lines used. The percentages of cell death were determined using the concentrations corresponding to the IC50 values for each compound in the three cancer cell lines (B16-F10, HT-29, and HepG2). This study was conducted by flow cytometry, using double staining with DY634 annexin V/propidium iodide, which allows the identification and quantification of intact, apoptotic, or necrotic cells. Annexin DY634 (red fluorescence) is an apoptotic marker due to its ability to bind to phosphatidylserine exposed on the external cell surface. Propidium iodide (orange fluorescence) is a DNA marker that is capable of penetrating only when the cell is damaged, differentiating late apoptotic or necrotic cells from apoptotic ones. These conjugates (1 and 2) are green fluorescent probes, not causing interference in the fluorescence.
(§6) The apoptosis studies were conducted at 4, 24, and 72 h (Figure 5).
(§7) Cell death (apoptosis) was studied by flow cytometry using a FACScan (fluorescence-activated cell sorter) flow cytometer (Coulter Corporation, Hialeah, FL). […] In each experiment, approximately 10 × 10^3 cells were analyzed, and the experiment was duplicated twice.

[10] = system: HT-29 cells; test: Annexin V/propidium iodide flow cytometry of cell death, HT-29; type: cell-based, human; conditions: HT-29, at IC50 concentration, after 72 h
Protocol: as §5, §6, §7

[11] = system: HepG2 cells; test: Annexin V/propidium iodide flow cytometry of cell death, HepG2; type: cell-based, human; conditions: HepG2, at IC50 concentration, after 72 h
Protocol: as §5, §6, §7

[12] = set-up: method as in PMID 26512635; conditions: ethanol solution ref 45; cited from earlier work

SMILES	IC50 [1] [µM]	IC50 [2] [µM]	SI (selectivity index, IC50 nontumor cells/IC50 cancer cells), IEC-18 [2]	IC50 [3] [µM]	IC50 [4] [µM]	SI (selectivity index, IC50 nontumor cells/IC50 cancer cells), HPF [4]	viability at 72 h [5] [%]	ε (molar extinction coefficient) [6] [M^–1 cm^–1]	τ (half-life time of fluorescence) [6] [ns]	Φ (fluorescence quantum yield) [6]	(λem)max [6] [nm]	IC50 [7] [µM]	SI (selectivity index, IC50 nontumor cells/IC50 cancer cells), WRL68 [7]	IC50 [8] [µM]	percentage of apoptosis [9] [%]	percentage of apoptosis [10] [%]	(λabs)max [6] [nm]	percentage of apoptosis [11] [%]	ΦF of the standard sample [12]
CC1(C)CC[C@]2(C(=O)O)CC[C@]3(C)C(=CC[C@@H]4[C@@]5(C)CC[C@H](OC(=O)CCCCCNc6ccc([N+](=O)[O-])c7nonc67)C(C)(C)[C@@H]5CC[C@]43C)[C@@H]2C1 [Compound 1, 3β-((6-((7-Nitrobenzo[c][1,2,5]oxadiazol-4-yl)amino)hexanoyl)oxy)olean-12-en-28-oic Acid]	2.4 ± 0.1	41 ± 0.3	2	19.5 ± 0.1	39.7 ± 1.2	17	75 to 90	2539	7.712	0.76	546	37.9 ± 0.2	3	12.5 ± 0.1					
CC1(C)CC[C@]2(C(=O)O)CC[C@]3(C)C(=CC[C@@H]4[C@@]5(C)C[C@@H](OC(=O)CCCCCNc6ccc([N+](=O)[O-])c7nonc67)[C@H](O)C(C)(C)[C@@H]5CC[C@]43C)[C@@H]2C1 [Compound 2, 3β-Hydroxy-2α-((6-((7-nitrobenzo[c][1,2,5]oxadiazol-4-yl)amino)hexanoyl)oxy)olean-12-en-28-oic Acid]	4.9 ± 0.4	14.7 ± 0.7	2	6.6 ± 0.1	14.8 ± 1.5	3	75 to 90	3166	7.681	0.71	546	10 ± 0.3	1	13.9 ± 0.6	48	55	480	53	
CCN(CC)c1ccc2cc(-c3nc4ccccc4s3)c(=O)oc2c1 [Coumarin 6]																			0.78

Reference: PMC9887599, “Synthesis, Optical Properties, and Antiproliferative Evaluation of NBD-Triterpene Fluorescent Probes” (Journal of Natural Products, 2022)
